Read-outs that look alike come from different tables or passages of the source. Values belong to the molecule of their own block, whether it stands above or below them.
How the values were obtained:
HCT116 cells = assay: SRB cell proliferation assay, HCT116; assay type: cell-based; conditions: Homo sapiens, read-out: GI50, HCT116
Experimental: (§1) Results are shown as mean ± SEM from three independent experiments. […] Cells (1 × 10^4) in 100 μL of medium in 96-well plates were incubated with vehicle (control) or vehicle with test compound for 12 or 24 h. After various treatments, 1 mg/mL of MTT was added and the plates were incubated at 37°C for an additional 2 h, then the cells were pelleted and lysed in 100 μL of dimethyl sulfoxide, and the absorbance at 550 nm was measured on a microplate reader. Cell proliferation was measured by the SRB assay. Cells (1 × 10^4) were incubated for 48 h with the indicated concentrations of test compounds, then were fixed with 10% trichloroacetic acid, stained for 30 min with SRB (0.4% in 1% acetic acid), and washed repeatedly with 1% acetic acid. Protein-bound dye was dissolved in 10 mM Tris base solution and the optical density at 510 nm measured.

MDA-MB-231 cells = assay: SRB cell proliferation assay, MDA-MB-231; assay type: cell-based; conditions: Homo sapiens, read-out: GI50, MDA-MB-231
Experimental: as §1

A549 cells = assay: SRB cell proliferation assay, A549; assay type: cell-based; conditions: Homo sapiens, read-out: GI50, A549
Experimental: as §1

AsPC-1 cells = assay: SRB cell proliferation assay, AsPC-1; assay type: cell-based; conditions: Homo sapiens, read-out: GI50, AsPC-1
Experimental: as §1

[1] = SRB cell proliferation assay, normal bone marrow stromal cells HS-5; assay type: cell-based; conditions: HS-5 normal bone marrow stromal cells, human normal bone marrow stromal cells
Experimental: as §1

recombinant HDAC1 = target: T1, recombinant HDAC1 (Homo sapiens, UniProt Q13547); assay: Inhibition of recombinant HDAC enzyme activity (fluorogenic kit), HDAC1; assay type: biochemical; conditions: mean ± SEM, read-out: IC50 HDAC1 (Class I)
T1 construct: purchased BPS Bioscience Corp
Description: (§2) Fluorogenic HDAC assay kits (BPS Bioscience Corp., San Diego, CA, USA) were used to assess the ability of HDAC inhibitors to inhibit deacetylation of lysine residues on the substrate by recombinant HDAC1, 2, 3, 4, 6, or 8 according to the manufacturer's instructions.

recombinant HDAC2 = target: T2, recombinant HDAC2 (Homo sapiens, UniProt Q92769); assay: Inhibition of recombinant HDAC enzyme activity (fluorogenic kit), HDAC2; assay type: biochemical; conditions: mean ± SEM, read-out: IC50 HDAC2 (Class I)
T2 construct: purchased BPS Bioscience Corp
Description: as §2

recombinant HDAC3 = target: T3, recombinant HDAC3 (Homo sapiens, UniProt O15379); assay: Inhibition of recombinant HDAC enzyme activity (fluorogenic kit), HDAC3; assay type: biochemical; conditions: mean ± SEM, read-out: IC50 HDAC3 (Class I)
T3 construct: purchased BPS Bioscience Corp
Description: as §2

recombinant HDAC8 = target: T4, recombinant HDAC8 (Homo sapiens, UniProt Q9BY41); assay: Inhibition of recombinant HDAC enzyme activity (fluorogenic kit), HDAC8; assay type: biochemical; conditions: mean ± SEM, read-out: IC50 HDAC8 (Class I)
T4 construct: purchased BPS Bioscience Corp
T4 sequence (Q9BY41 1-377): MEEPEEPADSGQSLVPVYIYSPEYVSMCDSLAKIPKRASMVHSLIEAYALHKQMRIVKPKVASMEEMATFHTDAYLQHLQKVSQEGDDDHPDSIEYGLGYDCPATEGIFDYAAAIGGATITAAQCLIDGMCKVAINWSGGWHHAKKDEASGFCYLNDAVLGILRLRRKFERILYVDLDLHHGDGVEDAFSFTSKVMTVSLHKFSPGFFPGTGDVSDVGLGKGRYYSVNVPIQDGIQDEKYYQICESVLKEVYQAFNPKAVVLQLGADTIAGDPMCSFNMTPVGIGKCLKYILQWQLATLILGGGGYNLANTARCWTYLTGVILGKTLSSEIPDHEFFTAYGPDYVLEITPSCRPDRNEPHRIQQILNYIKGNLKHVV
Description: as §2

recombinant HDAC4 = target: T5, recombinant HDAC4 (Homo sapiens, UniProt P56524); assay: Inhibition of recombinant HDAC enzyme activity (fluorogenic kit), HDAC4; assay type: biochemical; conditions: mean ± SEM, read-out: IC50 HDAC4 (Class IIa)
T5 construct: purchased BPS Bioscience Corp
Description: as §2

recombinant HDAC6 = target: T6, recombinant HDAC6 (Homo sapiens, UniProt Q9UBN7); assay: Inhibition of recombinant HDAC enzyme activity (fluorogenic kit), HDAC6; assay type: biochemical; conditions: mean ± SEM, read-out: IC50 HDAC6 (Class IIb)
T6 construct: purchased BPS Bioscience Corp
T6 sequence (Q9UBN7 1-1215): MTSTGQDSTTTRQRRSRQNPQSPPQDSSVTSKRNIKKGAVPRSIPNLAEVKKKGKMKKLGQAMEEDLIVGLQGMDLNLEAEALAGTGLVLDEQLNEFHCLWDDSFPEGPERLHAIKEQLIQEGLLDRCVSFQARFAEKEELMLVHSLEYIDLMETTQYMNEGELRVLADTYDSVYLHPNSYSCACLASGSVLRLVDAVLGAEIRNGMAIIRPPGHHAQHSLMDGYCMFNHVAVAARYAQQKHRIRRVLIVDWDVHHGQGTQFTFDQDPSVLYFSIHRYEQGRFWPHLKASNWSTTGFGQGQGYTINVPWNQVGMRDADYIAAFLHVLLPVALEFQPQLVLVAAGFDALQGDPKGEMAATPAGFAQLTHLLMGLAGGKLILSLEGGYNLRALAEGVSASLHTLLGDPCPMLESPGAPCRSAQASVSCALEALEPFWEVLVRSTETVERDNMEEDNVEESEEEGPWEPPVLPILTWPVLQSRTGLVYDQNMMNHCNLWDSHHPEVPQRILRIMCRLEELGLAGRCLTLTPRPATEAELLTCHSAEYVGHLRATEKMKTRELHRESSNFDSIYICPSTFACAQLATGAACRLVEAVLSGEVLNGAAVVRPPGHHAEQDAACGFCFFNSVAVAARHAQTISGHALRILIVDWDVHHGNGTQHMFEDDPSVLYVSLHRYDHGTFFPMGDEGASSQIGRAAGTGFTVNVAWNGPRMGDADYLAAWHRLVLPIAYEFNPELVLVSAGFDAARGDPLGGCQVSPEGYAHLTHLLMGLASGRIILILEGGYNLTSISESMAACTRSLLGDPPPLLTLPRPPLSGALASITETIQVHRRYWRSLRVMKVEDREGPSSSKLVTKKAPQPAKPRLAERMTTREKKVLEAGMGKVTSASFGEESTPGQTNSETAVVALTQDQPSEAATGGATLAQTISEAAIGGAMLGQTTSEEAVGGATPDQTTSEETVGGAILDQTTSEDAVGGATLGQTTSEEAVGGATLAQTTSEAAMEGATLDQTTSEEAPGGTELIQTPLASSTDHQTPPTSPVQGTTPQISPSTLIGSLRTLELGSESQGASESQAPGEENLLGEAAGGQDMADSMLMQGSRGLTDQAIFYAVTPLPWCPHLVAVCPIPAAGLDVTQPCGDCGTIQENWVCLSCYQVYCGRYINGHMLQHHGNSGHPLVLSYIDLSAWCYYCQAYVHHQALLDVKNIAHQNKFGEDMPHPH
Description: as §2

[2] = tested on: total HDAC activity in HCT116 cells; assay: Total HDAC enzymatic activity assay in treated HCT116 cells; assay type: cell-based; conditions: Homo sapiens, read-out: HDAC inhibitory IC50 in HCT116 cells (total HDAC enzyme activity)
Experimental: B. HCT116 cells (1 × 10^6) treated as explained in (A), whole-cell extracts were subjected to western blotting for the indicated proteins. Quantitative analysis of acetyl-histone H3 C. and acetyl-α-tubulin D. expression in western blot were determined by ImageQuant (Molecular Dynamics, USA). E. Immunohistochemical analysis of the HDAC1, 2 and 6 expression of a tissue microarray containing normal colon tissues and tumor tissue derived from patients with colon adenocarcinoma. Scale bars are indicated. […] Total cell lysates were collected and the total HDAC enzyme activity was analyzed using HDAC activity fluorometric assay kit (Cat No. K330–100; BioVision, Milpitax, CA, USA).

HCT116 xenograft tumor = assay: HCT116 xenograft model; assay type: in vivo, nude mice; conditions: 15 mg/kg
Experimental: Figure 5 The effect of MPT0G157 in HCT116 xenograft model Mice bearing established HCT116 tumors (~100 mm^3) were divided into three group (n = 5) and dosed as Materials and Methods. The tumor volumes A. and body weight B. of mice were measured. Results are mean ± SEM. **p < 0.01 versus control group.
HCT116 cells were implanted subcutaneously into four week old male nude mice. When the tumors reached the average volume of 100 mm^3, the mice were randomly divided into three groups (n = 5) and then were treated with the vehicle (1% carboxymethyl cellulose + 0.5% Tween 80, 0.2 mL/mouse), MPT0G157 (15 mg/kg) by intravenously injection five on two off in the first week and intraperitoneal injection in the other weeks. The length (L) and width (W) of the tumor were measured by caliper every 3 to 4 days, and the tumor volume was calculated as L × W^2/2.

[3] = tested on: matrigel-induced angiogenesis; assay: In vivo matrigel plug angiogenesis assay; parameters: species or system nude mice; conditions: 0.1 and 1 μM in matrigel, seven days, versus control group
Description: A. After seven days, the animals were sacrificed and the plugs were excised from the mice and photographed. Scale bar represents 0.5 cm. B. Sections of H&E, Masson's trichrome stained and CD31 stained matrigel plugs were examined by light microscopy under 200 × magnification. Scale bar = 100 μm. C. Quantification of the hemoglobin contents of matrigel plugs by spectrophotometer measured at 540 nm. Data represent the mean ± SEM. *p < 0.05 and ***p < 0.001 versus control group.
Six-week-old female nude mice were divided into four groups with three animals in each group. Mice were injected subcutaneously into the abdomens with matrigel (BD Bioscience) mixed with PBS or angiogenic factors (40 ng/ml) with/without MPT0G157 (0.1 μM and 1 μM). After seven days, the animals were sacrificed and the plugs were carefully dissected and photographed, the plugs were performed hematoxylin and eosin (H&E), Masson's trichrome stain and CD31 staining. To quantify the blood vessel formation, hemoglobin content was analyzed by Drabkin's reagent kit (Sigma Chemical, St. Louis, MO).

[4] = tested on: HIF-1α and VEGF expression in HCT116 cells; assay: CoCl2-induced HIF-1α / VEGF expression in HCT116 cells (western blot, RT-PCR); assay type: cell-based, human; conditions: 0.1 μM 24 h, then CoCl2 300 μM 4 h
Experimental: D. Cells were incubated as explained in (C), the levels of hypoxia-inducible factor-1α (HIF-1α), vascular endothelial growth factor (VEGF) mRNA were measured by RT-PCR.
Total RNA was isolated from cells using TRIzol reagent (Invitrogen). Single-strand cDNA for a polymerase chain reaction (PCR) template was synthesized from 5 μg of total RNA using random primers and Moloney murine leukemia virus reverse transcriptase (Promega). […] Equal amounts (1 μg) of each reverse-transcription product were PCR-amplified using Taq polymerase and 35 cycles of 1 min at 95°C, 1 min at 58°C, and 1 min at 72°C. The amplified cDNA was run on 1% agarose gels and visualized under UV light following staining with SYBR Safe DNA gel stain (Invitrogen).
Cells (1 × 10^6) were incubated for 10 min at 4°C in lysis buffer (20 mM HEPES, pH 7.4, 2 mM EGTA, 50 mM β-glycerophosphate, 0.1% Triton X-100, 10% glycerol, 1 mM DTT, 1 μg/mL of leupeptin, 5 μg/mL of aprotinin, 1 mM phenylmethylsulfonyl fluoride, and 1 mM sodium orthovanadate), were scraped off, incubated on ice for an additional10 min, and centrifuged at 17, 000 g for 30 min at 4°C. Protein samples (80 μg) were then electrophoresed on sodium dodecyl sulfate polyacrylamide gels (SDS-PAGE) and transferred onto a nitrocellulose membrane, which was then blocked by incubation for 30 min at room temperature with 5% fat-free milk in phosphate-buffered saline (PBS). Immunoblotting was performed by overnight incubation at 4°C with primary antibodies in PBS, followed by incubation for 1 h at room temperature with HRP-conjugated secondary antibodies. Bound antibodies were measured using ECL reagent (Advansta Corp., Menlo Park, CA, USA) and exposure to photographic film.

[5] = tested on: HDAC (HeLa nuclear extract); parameters: method as in PMID 25113875; conditions: cited from earlier work
[6] = tested on: inflammatory factors NO, TNF-α, IL-6, PGE2; parameters: method as in PMID 25113875; conditions: cited from earlier work

T5 sequence (P56524 627-1084 limits assumed): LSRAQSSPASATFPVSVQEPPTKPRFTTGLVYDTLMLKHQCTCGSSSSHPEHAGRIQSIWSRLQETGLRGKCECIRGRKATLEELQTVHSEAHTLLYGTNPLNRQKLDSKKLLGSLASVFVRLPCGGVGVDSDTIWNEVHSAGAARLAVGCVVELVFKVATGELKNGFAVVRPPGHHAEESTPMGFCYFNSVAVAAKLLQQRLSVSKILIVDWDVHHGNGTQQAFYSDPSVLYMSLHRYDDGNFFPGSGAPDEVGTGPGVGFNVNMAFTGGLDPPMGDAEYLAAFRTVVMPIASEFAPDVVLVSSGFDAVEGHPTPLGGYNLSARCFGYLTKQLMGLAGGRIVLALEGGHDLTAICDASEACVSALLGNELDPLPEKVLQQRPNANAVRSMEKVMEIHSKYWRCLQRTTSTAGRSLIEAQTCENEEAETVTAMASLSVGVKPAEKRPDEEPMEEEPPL
T2 sequence (Q92769 whole entry): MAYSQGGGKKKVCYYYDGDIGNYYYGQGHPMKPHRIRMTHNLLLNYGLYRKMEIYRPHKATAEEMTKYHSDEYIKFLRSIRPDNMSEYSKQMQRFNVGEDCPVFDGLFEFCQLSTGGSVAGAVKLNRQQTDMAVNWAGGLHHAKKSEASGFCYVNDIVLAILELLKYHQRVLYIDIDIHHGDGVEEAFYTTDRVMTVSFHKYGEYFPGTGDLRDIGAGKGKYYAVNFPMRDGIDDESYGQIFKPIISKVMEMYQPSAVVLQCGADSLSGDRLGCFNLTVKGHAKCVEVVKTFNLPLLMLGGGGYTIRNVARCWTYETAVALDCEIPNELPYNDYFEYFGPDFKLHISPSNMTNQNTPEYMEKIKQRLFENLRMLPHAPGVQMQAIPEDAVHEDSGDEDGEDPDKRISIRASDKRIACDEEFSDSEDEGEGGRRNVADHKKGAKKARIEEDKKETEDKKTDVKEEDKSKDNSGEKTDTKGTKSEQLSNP
T3 sequence (O15379 whole entry): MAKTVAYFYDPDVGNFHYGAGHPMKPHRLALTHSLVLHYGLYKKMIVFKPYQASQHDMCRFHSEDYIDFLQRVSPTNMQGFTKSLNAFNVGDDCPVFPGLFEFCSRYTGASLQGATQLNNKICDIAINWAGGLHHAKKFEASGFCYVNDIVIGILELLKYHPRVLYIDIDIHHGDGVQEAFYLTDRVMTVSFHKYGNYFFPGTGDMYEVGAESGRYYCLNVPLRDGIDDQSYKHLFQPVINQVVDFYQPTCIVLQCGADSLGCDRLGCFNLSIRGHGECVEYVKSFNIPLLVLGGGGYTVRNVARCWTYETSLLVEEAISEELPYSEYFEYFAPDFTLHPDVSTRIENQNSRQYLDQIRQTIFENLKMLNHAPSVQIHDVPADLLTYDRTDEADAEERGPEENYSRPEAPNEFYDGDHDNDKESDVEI
T3 sequence (Q9Y618 395-489 partner limits assumed): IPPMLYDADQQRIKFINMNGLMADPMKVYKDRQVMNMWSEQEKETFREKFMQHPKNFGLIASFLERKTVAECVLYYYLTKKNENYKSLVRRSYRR
T1 sequence (Q13547 whole entry): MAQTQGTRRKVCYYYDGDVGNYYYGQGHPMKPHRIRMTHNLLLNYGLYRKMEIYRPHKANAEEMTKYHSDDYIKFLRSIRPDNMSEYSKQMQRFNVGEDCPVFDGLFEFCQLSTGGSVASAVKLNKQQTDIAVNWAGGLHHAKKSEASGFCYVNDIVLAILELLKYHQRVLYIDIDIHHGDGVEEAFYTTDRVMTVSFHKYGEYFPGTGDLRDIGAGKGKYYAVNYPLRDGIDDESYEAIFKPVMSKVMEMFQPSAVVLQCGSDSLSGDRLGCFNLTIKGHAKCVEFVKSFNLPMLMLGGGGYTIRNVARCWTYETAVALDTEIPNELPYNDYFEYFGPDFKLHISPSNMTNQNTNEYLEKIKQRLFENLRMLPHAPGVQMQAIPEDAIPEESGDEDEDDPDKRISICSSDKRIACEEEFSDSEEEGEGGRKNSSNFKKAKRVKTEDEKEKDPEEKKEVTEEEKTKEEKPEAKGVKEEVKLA

GI50 (HCT116 cells; HCT-116, SRB assay, 48 h): 29 ± 2 nM
GI50 (MDA-MB-231 cells; MDA-MB-231, SRB assay, 48 h): 47 ± 7 nM
GI50 (A549 cells; A549, SRB assay, 48 h): 307 ± 36 nM
GI50 (AsPC-1 cells; ASPC1, SRB assay, 48 h): 103 ± 17 nM
IC50 (recombinant HDAC1): 7.69 ± 1.84 nM
IC50 (recombinant HDAC2): 5.13 ± 0.67 nM
IC50 (recombinant HDAC3): 9.36 ± 0.7 nM
IC50 (recombinant HDAC8): > 1000 nM
IC50 (recombinant HDAC4): > 1000 nM
IC50 (recombinant HDAC6): 14.3 ± 0.77 nM
IC50 ([2]; HCT-116, HCT116 cells treated 24 h): 470 ± 140 nM
SMILES: Cc1[nH]c2ccccc2c1CCNS(=O)(=O)c1ccc(C=CC(=O)NO)cc1 [MPT0G157, N-hydroxy-3-{4-[2-(2-methyl-1H-indol-3-yl)-ethylsulfamoyl]-phenyl}-acrylamide]
GI50 at 48 h [1]: > 100000 nM
body weight loss during treatment (HCT116 xenograft tumor; HCT116 xenograft mice): no significant differences in weight loss
percent of tumor growth inhibition (TGI) (HCT116 xenograft tumor; i.v. first week then i.p., nude mice with HCT116 tumors): 50.7%
angiogenic response (hemoglobin content of matrigel plugs) [3]: significantly suppressed the angiogenic response
CoCl2-induced HIF-1α protein expression ([4]; HCT116): markedly inhibited
CoCl2-induced VEGF mRNA expression ([4]; HCT116, RT-PCR): markedly inhibited
HIF-1α mRNA levels ([4]; HCT116, RT-PCR): did not reduce
IC50 ([5]; HeLa nuclear extract as the HDAC source, read-out: IC50 for inhibition of HDAC activity): 2.8 ± 0.2 nM
HDAC inhibition, fold compared with PXD101 ([5]; compared with PXD101): 9.4 fold
suppression of inflammatory factor activities, fold compared with PXD101 [6]: 3.0–25.1 fold

SMILES: O=C(/C=C/c1cccc(S(=O)(=O)Nc2ccccc2)c1)NO [PXD101, reference compound]
GI50 (HCT116 cells; HCT-116, 48 h): 90 ± 12 nM
GI50 (MDA-MB-231 cells; MDA-MB-231, 48 h): 241 ± 2 nM
GI50 (A549 cells; A549, 48 h): > 1000 nM
GI50 (AsPC-1 cells; ASPC1, 48 h): > 1000 nM
IC50 (recombinant HDAC4): 161 ± 2.36 nM
IC50 (recombinant HDAC6): 80.3 ± 8.69 nM
IC50 ([2]; HCT-116, 24 h): 10300 ± 2250 nM

GI50 (HCT116 cells; HCT-116, 48 h): 411 ± 37 nM
GI50 (MDA-MB-231 cells; MDA-MB-231, 48 h): 745 ± 43 nM
GI50 (A549 cells; A549, 48 h): > 1000 nM
GI50 (AsPC-1 cells; ASPC1, 48 h): > 1000 nM
SMILES: O=C(CCCCCCC(=O)Nc1ccccc1)NO [SAHA]
